Test results published in paper PMC7427800 (Scientific Reports, 2020).
Where two headings read alike, the source gives them in different places.

Legend:
[1] = target: T1, human MOR (Homo sapiens, UniProt P35372); assay: biochemical; format: binding; parameters: host or cells: CHO (CHO-hMOR), cell membranes
[2] = target: T1, human MOR; format: cell-based; parameters: host or cells: U2OS (PathHunter U2OS-hMOR-βarrestin2); settings: PathHunter, U2OS-hMOR
[3] = target: T2, human DOR (Homo sapiens, UniProt P41143); format: binding
T2 construct: host or cells: CHO (CHO-hDOR), cell membranes

[4] = target: T1, human MOR; assay: biochemical; format: biochemical; parameters: host or cells: CHO (CHO-hMOR), cell membranes; settings: for agonist character at the MOR: CHO-hMOR; for G protein activation %stim: percentage stimulation relative to DAMGO
[5] = test system: dopamine D1 receptor; parameters: method as in PMID 18830156, PMID 30308941; settings: cell-based functional assays; cited from earlier work
[6] = target: T3, human KOR (Homo sapiens, UniProt P41145); format: binding
T3 construct: host or cells: CHO (CHO-hKOR), cell membranes

[7] = test system: acetic acid-induced writhing; assay: acetic acid-induced writhing test; format: in vivo, mice; settings: for reduction in the number of writhes / times less effective than morphine (0.5 mg/kg) at equianalgesic doses: mice; for reduction in the number of writhes: 30 min after administration; for antiwrithing response after naltrexone pretreatment: naltrexone 1 mg/kg s.c. 10 min before agonist; for times less effective than morphine (0.5 mg/kg) at equianalgesic doses: writhing assay, s.c.
Description: Male CD1 mice (30–35 g, 7–8 weeks old) were obtained from the Center of Biomodels and Experimental Medicine (CBEM) (Innsbruck, Austria). Mice were group-housed in a temperature-controlled room with a 12 h light/dark cycle and with free access to food and water. All animal studies were conducted in accordance with ethical guidelines and animal welfare standards according to Austrian regulations for animal research and were approved by the Committee of Animal Care of the Austrian Federal Ministry of Science and Research. Test compounds or vehicle were administered by s.c. route in a volume of 10 µL/1 g of body weight.
Writhing was induced in mice by intraperitoneal (i.p.) injection of a 0.6% acetic acid aqueous solution[26]. Drugs or control (vehicle) were s.c. administered, and after 25 min (5 min prior to testing), each animal received i.p. acetic acid solution. Each mouse was placed in individual transparent Plexiglas chambers, and the number of writhes was counted during a 10 min observation period. […] For the antagonism study, naltrexone (1 mg/kg) was s.c. administered 10 min before the opioid agonist, and writhing as assessed as described above. Each experimental group included five to six animals.

[8] = rat, in vivo; cited from earlier work

T1 sequence (P35372 whole entry): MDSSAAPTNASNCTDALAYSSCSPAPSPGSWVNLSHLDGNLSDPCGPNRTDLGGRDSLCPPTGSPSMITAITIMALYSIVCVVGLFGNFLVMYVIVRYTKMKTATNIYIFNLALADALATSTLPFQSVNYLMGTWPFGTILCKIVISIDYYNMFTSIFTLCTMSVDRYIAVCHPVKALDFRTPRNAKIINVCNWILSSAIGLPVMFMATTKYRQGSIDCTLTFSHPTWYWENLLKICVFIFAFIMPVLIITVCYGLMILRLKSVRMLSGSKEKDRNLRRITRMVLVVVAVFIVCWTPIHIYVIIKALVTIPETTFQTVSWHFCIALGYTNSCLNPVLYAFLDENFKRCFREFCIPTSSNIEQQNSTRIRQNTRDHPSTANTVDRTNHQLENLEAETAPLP
T3 sequence (P41145 whole entry): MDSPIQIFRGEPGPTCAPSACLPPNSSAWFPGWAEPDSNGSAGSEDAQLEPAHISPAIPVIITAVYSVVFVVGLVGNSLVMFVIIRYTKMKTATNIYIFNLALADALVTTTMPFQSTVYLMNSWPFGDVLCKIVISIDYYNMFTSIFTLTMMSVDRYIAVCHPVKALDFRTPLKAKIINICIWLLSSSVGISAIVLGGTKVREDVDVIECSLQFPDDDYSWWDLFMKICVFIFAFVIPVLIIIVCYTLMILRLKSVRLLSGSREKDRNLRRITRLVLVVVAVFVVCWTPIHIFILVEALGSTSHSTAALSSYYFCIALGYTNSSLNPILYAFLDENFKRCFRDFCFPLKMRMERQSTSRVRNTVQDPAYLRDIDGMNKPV
T2 sequence (P41143 whole entry): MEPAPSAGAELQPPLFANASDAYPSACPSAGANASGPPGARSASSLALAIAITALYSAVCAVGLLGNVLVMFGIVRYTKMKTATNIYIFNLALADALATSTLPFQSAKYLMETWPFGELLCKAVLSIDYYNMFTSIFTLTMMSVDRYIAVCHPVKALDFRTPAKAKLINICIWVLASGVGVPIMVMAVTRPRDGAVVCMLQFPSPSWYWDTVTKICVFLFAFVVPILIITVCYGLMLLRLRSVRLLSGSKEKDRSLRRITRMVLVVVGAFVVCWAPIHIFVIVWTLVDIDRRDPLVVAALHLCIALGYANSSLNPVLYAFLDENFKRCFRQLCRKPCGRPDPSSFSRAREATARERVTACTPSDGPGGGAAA

Row | Structure (SMILES) | Ki [1] [nM] | β-arrestin2 recruitment upon activation of the MOR [2] | specific binding to the human DOR [3] | alterations in general behavior (locomotor activity, sedation) (mouse, in vivo) | EC50 [4] [nM] | agonist character at the MOR ([4]; [35S]GTPγS binding) | G protein activation %stim ([4]; [35S]GTPγS binding) [%] | activity at the dopamine D1 receptor [5] | specific binding to the human KOR [6] | reduction in the number of writhes ([7]; 10 mg/kg s.c.) [%] | antiwrithing response after naltrexone pretreatment [7] | times less effective than morphine (0.5 mg/kg) at equianalgesic doses [7] | blood–brain barrier crossing [8] | β-arrestin2 recruitment %stim ([2]; relative to DAMGO, – denotes no measurable activity) [%] | alterations in general behavior (locomotor activity, sedation) (mice, s.c., tested doses (5 mg/kg corydine, 10 mg/kg corydaline)) | agonist potency, times greater than corydaline (2) ([4]; [35S]GTPγS binding) | agonist potency, times less potent than DAMGO ([4]; [35S]GTPγS binding) [times] | reduction in the number of writhes ([7]; 5 mg/kg s.c.) [%]
1 | COc1cc2c(cc1OC)C1C(C)c3ccc(OC)c(OC)c3CN1CC2 (centres unmarked) [Corydaline (2), corydaline] | 1230 ± 290 | failed to induce β-arrestin2 recruitment | did not specifically bind | no major alterations in locomotor activity and no sedation | 1500 ± 440 | full agonists | 104 ± 6 | antagonist activity | did not specifically bind | 59 | antagonized | ~20 times | can effectively cross the blood–brain barrier | – | – | – | – | –
2 | C[C@@H](NC(=O)[C@@H](N)Cc1ccc(O)cc1)C(=O)NCC(=O)N(C)[C@@H](Cc1ccccc1)C(=O)NCCO [DAMGO, reference compound] | – | effectively recruited β-arrestin2 | – | – | – | – | 100 | – | – | – | – | – | – | 100 | – | – | – | –
3 | COc1cc2c3c(c1O)-c1c(ccc(OC)c1OC)C[C@@H]3N(C)CC2 [Corydine (1), corydine] | 2820 ± 610 | failed to induce β-arrestin2 recruitment | did not specifically bind | – | 510 ± 110 | full agonists | 102 ± 6 | – | did not specifically bind | – | antagonized | ca. 10 times | – | – | no major alterations in locomotor activity and no sedation | about 3 times | 34 | 51
